Earlier results on three substances are cited in paper PMC2748991 (Planta medica, 2009).

One series deals with elastase. As to conditions: ref [3],[4].
In a further series the test system is trypsin. As to conditions: ref [5].

Turning to lyngbyastatin 5, in the series on elastase, the “elastase inhibition (in words)” value is reported as “potent inhibitors”.

For the substance lyngbyastatin 6, in the series on elastase, the “elastase inhibition (in words)” value was “potent inhibitors”.

Turning to pompanopeptin A, in the series on trypsin, the “trypsin inhibition (in words)” value is given as “trypsin inhibitor”.
